The record followed here is paper PMC9181014, “De Novo Development of Mitochondria-Targeted Molecular Probes Targeting Pink1” (International Journal of Molecular Sciences, 2022).

Numbered stars: 1 amine (or outer) side, 2 acyl side, 3 side chain; on linkers, the order of the positions; unused ones are H or OH. Bridge positions count the residues as written; N and C are the ends. Ends that are not written are not given here. Peptide text beside a SMILES is read from it. Suc = O=C(CCC(=O)[*:2])[*:1] Where only a bound is given, the exact number is not on record here.

For data set [1], the target named is T1, TcPink1 (Tribolium castaneum, UniProt D6WMX4).
T1 construct: host or cells: E. coli Rosetta (DE3)
As to the kind of experiment: Cross-linking coupled with mass spectrometry (CLMS), DMTMM cross-linker. Particulars: DMTMM cross-link CVP198-CVP198 (both partners the peptide), in the CVP-198 + tcPINK1 sample. It is filed as binding. How it is done:
(§1) Here, two water-soluble cross-linkers were used for the CLMS: 4-(4,6-dimethoxy-1,3,5-triazin-2-yl)-4-methyl-morpholinium chloride (DMTMM), and bis(sulfosuccinimidyl)suberate (BS3). DMTMM is a hetero-bifunctional amine-to-carboxylic acid crosslinker, and BS3 is a homo-bifunctional amine-to-amine crosslinker, which reacts primarily with the ε-amino group of lysine residues in proteins.
(§2) In brief: The recombinant protein and the peptide were incubated together with a crosslinker. The reaction was stopped with a quencher. The proteins were precipitated collected and trypsinased, the outcome was analysed by liquid chromatography mass spectrometry (LCMS).
(§3) A mixture solution of purified protein and peptide was prepared in HEPES buffer (50 mM HEPES, 150 mM NaCl (pH 8.0)). Protein TcPink1’s final concentration was 10 μM and hPink1’s final concentration was 2 μM. The peptide was added at a 1:10 or 1:100 protein-to-peptide ratio, and the mixture incubated with agitation for 20 min at room temperature. For BS3 cross-linking, a solution of BS3 in DMSO (150 mM) was used, which was diluted with the proteins to a final BS3 concentration of 1 mM. The cross-linking reaction was incubated at room temperature for 30 min with agitation. The reaction was quenched by adding ammonium bicarbonate to a final concentration of 30 mM.

Data set [2] has as its target T1, TcPink1. Put plainly: Peptide binding to immobilized protein in vitro, field-effect biosensing (FEB). As to conditions: AGILE Dev Kit graphene biosensor chip, protein 500 nM immobilized by EDC/sulfo-NHS, analyte 50 µL in PBS pH 7.4, Hill fit, mean ± SEM, read-out: KD of the peptides binding to TcPink1. The protocol:
In brief: Protein was immobilized/cross-linked into the carboxyl group present on the activated graphene biosensor chip. The analyte is applied in solution to the chip and when an interaction occurs, an alteration in the current (I) is measured and recorded in real-time throughout the experiment. The entire cycle of the experiment starts with calibration using PBS (pH 7.4) to record the baseline equilibration response. Followed by the association step by adding analyte (50 µL) at the desired concentrations in PBS (pH 7.4). After the experiment, data at the concentration points of the analytes were exported from 3 transistors, averaged, and any background drift recorded in PBS was subtracted.
Binding data of the peptides to immobilized protein in vitro was gathered using an AGILE Dev Kit label-free binding assay (Cardea, San Diego, CA, USA). […] After a rinse in PBS, base-line current levels for the chip were recorded for at least 5 min. Next, the PBS was aspirated, and a droplet of the tested analyte (50 μL) was applied to the chip and the change in the sensor chip readout was recorded, after that the analyte was aspirated and the chip was rinsed with PBS. […] After data were gathered, the responses of the sensors on a single assay chip were averaged, and any background drift recorded in PBS was subtracted. […] The KD values were calculated by GraghPad Prism 9, statistical analysis software. […]

Data set [3] deals with T2, trypsin (Sus scrofa, UniProt P00761).
T2 construct: purchased Sigma-Aldrich; host or cells: porcine pancreas
T2 sequence (P00761 9-231): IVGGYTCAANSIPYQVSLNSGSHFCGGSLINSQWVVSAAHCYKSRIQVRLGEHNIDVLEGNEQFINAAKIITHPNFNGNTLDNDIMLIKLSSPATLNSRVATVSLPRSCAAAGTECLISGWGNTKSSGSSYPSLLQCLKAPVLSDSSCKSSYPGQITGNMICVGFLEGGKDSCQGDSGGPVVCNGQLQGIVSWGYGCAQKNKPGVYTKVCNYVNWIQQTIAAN
Put plainly: Stability of peptides under tryptic degradation, HPLC. Particulars: pig, trypsin from porcine pancreas, porcine pancreas trypsin (1 µL of 1 mg/mL), peptide 2 mg in 800 µL 50 mM Tris pH 8.0, 37 °C, RP-HPLC, 214 nm, relative to time zero, n = 3; for metabolised at 0.5 h, 2.5 mg/mL: 30 min, read-out: Degradation of the peptide by trypsin after 30 min. The format is in vitro ADME. How it is done: (§4) We tested the stability of the peptides using trypsin, an endopeptidase with specificity for cleaving the amide bond between a cationic amino acid and the next amino acid in the C-terminal direction, which is found in the digestive systems of many vertebrates, and it is commonly used as an important enzymatic reagent in biochemistry and biology.
(§5) The stability of the peptides was measured independently under tryptic degradation at 37 °C (by trypsin degradation of the peptide) and was determined by HPLC analysis (for more experimental details, see “Materials and Methods”) (n = 3). The starting time point (0 min, 100%) represents the peptide at the beginning of each experiment. […] Separation was performed by HPLC in the presence of 0.1% trifluoroacetic acid and detected by absorbance at 214 nm. Peptide amounts were calculated relative to the quantities determined at time point zero.
(§6) In brief: The stability studies of the peptides were performed by dissolving the peptides in Tris buffer and incubating them with trypsin solution at 37 °C using HPLC.
(§7) Further details: Trypsin from porcine pancreas was purchased from Sigma-Aldrich (Saint Louis, MO, USA). Peptide (2 mg) was dissolved in Tris buffer (800 µL, 50 mM (pH 8.0)). The peptide solution was mixed with 1 μL of trypsin solution (1 mg/mL in 50 mM Tris buffer (pH 8.0)). The peptide was incubated at 37 °C and samples (90 μL) were taken at 0, 5, 30, 60, and 120 min. The samples were mixed with TFA/CH3CN/H2O (2%/5%/93%, 90 µL). The peptides were analyzed by analytical reverse-phase high-pressure liquid chromatography (RP-HPLC) 1260 Infinity II LC System from Agilent, (Santa Clara, CA, USA) using a Luna 5 μm C18(2) 100 Å (250 × 4.6 mm) column (Phenomenex, Torrance, CA, USA) at 1 mL/min. The solvent systems used were A (H2O with 0.1% TFA) and B (CH3CN with 0.1% TFA). A linear gradient of 5–50% B in 15 min was applied, and the detection was at 214 nm and 254 nm.

Data set [4] addresses T1, TcPink1. As to the kind of experiment: Cross-linking coupled with mass spectrometry (CLMS), BS3 cross-linker. As to conditions: BS3 cross-link CVP198 to CVP198 (residue 11 to residue 11), self cross-link in the CVP198 + tcPINK1 sample. It is filed as binding. How it is done:
as §1, §2, §3

For data set [5], the system named is T3, trypsin.
T3 construct: purchased Sigma-Aldrich; host or cells: porcine pancreas
Put plainly: Stability of peptides under tryptic degradation, HPLC. It is filed as in vitro ADME. Particulars: pig, trypsin from porcine pancreas; porcine pancreas trypsin (1 µL of 1 mg/mL); peptide 2 mg in 800 µL 50 mM Tris pH 8.0; 37 °C; 120 min; RP-HPLC, 214 nm; relative to time zero; n = 3; read-out: Degradation of the peptide by trypsin after 120 min. The protocol: as §4, §5, §6, §7

For data set [6], the target named is T4, Tribolium castaneum Pink1 (TcPink1) (Tribolium castaneum, UniProt D6WMX4 6-570).
T4 construct: No cleavage of MBP is described; also called pMal4c Pink1 (Tribolium castaneum) DU34701; not shown: MBP (from the vector pMal4c)
T4 sequence (looked up): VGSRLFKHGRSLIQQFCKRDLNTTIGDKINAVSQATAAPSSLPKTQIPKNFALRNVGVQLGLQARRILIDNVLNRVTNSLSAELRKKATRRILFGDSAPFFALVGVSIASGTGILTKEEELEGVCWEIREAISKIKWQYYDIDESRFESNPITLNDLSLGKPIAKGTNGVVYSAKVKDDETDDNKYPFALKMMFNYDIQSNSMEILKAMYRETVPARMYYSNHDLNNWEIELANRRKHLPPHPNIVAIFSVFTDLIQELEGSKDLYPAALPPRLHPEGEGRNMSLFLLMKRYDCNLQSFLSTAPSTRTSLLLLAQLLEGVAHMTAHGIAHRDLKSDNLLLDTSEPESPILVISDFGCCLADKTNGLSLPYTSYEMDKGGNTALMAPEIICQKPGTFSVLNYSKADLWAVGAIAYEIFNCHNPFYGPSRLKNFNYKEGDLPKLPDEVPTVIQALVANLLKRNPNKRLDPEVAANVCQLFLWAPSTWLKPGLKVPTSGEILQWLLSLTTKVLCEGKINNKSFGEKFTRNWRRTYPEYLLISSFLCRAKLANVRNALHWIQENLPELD
As to the kind of experiment: field-effect biosensing (FEB); TcPink1 (500 nM) covalently immobilised by EDC/sulfo-NHS on a graphene biosensor chip (AGILE Dev Kit, Cardea); peptides as analyte in PBS pH 7.4 at varying concentrations; Hill fit for KD. As to conditions: both partners purified.

Regarding “Ac-GLQRMVLVDLKGGYGRKKRRQRRR-NH2 [CVP-198]”, the figures for the XL fragmentation score on TcPink1 [1] and on TcPink1 [4] were 0.74 and 1, respectively. For the same molecule, on TcPink1 [2], the Kd (in general, the equilibrium constant for the complex coming apart) was 130.47 ± 0.01 µM. Also, at trypsin [3], the metabolised at 0.5 h, 2.5 mg/mL is roughly 70%. The metabolised at 2 h, 2.5 mg/mL on trypsin [3] (120 min, read-out: Degradation of the peptide by trypsin after 120 min) is roughly 95%.
For the molecule `CSCC[C@@H]1NC(=O)[C@H](CCCNC(=N)N)NC(=O)[C@H](CCC(N)=O)NC(=O)[C@H](CC(C)C)NC(=O)CNC(=O)CCC(=O)NCCCC[C@@H](C(=O)NCC(=O)NCC(=O)N[C@@H](Cc2ccc(O)cc2)C(=O)NCC(=O)N[C@@H](CCCNC(=N)N)C(=O)N[C@@H](CCCCN)C(=O)N[C@@H](CCCCN)C(=O)N[C@@H](CCCNC(=N)N)C(=O)N[C@@H](CCCNC(=N)N)C(=O)N[C@@H](CCC(N)=O)C(=O)N[C@@H](CCCNC(=N)N)C(=O)N[C@@H](CCCNC(=N)N)C(=O)N[C@@H](CCCNC(=N)N)C(N)=O)NC(=O)[C@H](CC(C)C)NC(=O)[C@H](CC(=O)O)NC(=O)[C@H](C(C)C)NC(=O)[C@H](CC(C)C)NC(=O)[C@H](C(C)C)NC1=O` [CVP-199] (GLQRMVLVDLKGGYGRKKRRQRRR-NH2; linker N-11 via Suc), the Kd on TcPink1 [2] amounted to 58.31 ± 0.02 µM. Besides, the metabolised at 0.5 h, 2.5 mg/mL at trypsin [3] turned out to be 45%. In addition, the metabolised at 2 h, 2.5 mg/mL in the data set on trypsin [5] was less than 75%.

B1: CVP-200, backbone cyclic peptide (n = 3, bridge size 10, ring size 42) (peptide)
chain: GLQRMVLVDLKGGYGRKKRRQRRR-NH2
modifications: also: backbone cyclic: spacer on N-terminal amine linked to side chain of added lysine, that lysine's position not given here, linker at N via dicarboxylic acid spacer (n = 3), other end not in the chain
B1 had a Kd in data set [6] of 139 µM.
